Measured values published in ChEMBL document CHEMBL3102707, “Synthesis and structure-activity relationship of 2-adamantylmethyl tetrazoles as potent and selective inhibitors of human 11β-hydroxysteroid dehydrogenase type 1 (11β-HSD1)” (Bioorg Med Chem Lett, 2014).

Tests used:
[1] = Aqueous solubility of the compound; assay type: physicochemical; settings: buffer
[2] = Drug level in mouse liver at 10 mg/kg, po after 3 hrs; assay type: ADME, organism-based; parameters: dose 10 mg/kg, route oral; settings: read-out: Drug uptake
[3] = Drug level in mouse adipose tissue at 10 mg/kg, po after 3 hrs; assay type: ADME, organism-based; parameters: dose 10 mg/kg, route oral; settings: read-out: Drug uptake
[4] = Plasma concentration in mouse at 10 mg/kg, po after 3 hrs; assay type: ADME, organism-based; parameters: dose 10 mg/kg, route oral

solubility [1]	concentration at 3 h [2] [µM]	concentration at 3 h [3] [µM]	concentration at 3 h [4] [µM]	SMILES
soluble				c1ccc(-c2ccc(C3(Cc4nnn[nH]4)C4CC5CC(C4)CC3C5)cc2)cc1 (configuration not stated)
	23.7	< 0.075	0.82	N#Cc1ccc(-c2ccc(C3(Cc4nnn[nH]4)C4CC5CC3CC(C4)C5O)cc2)cc1 (racemic)
	13.9	0.16	1.56	OC1C2CC3CC1CC(C2)C3(Cc1nnn[nH]1)c1ccc(-c2ccc(F)cc2)cc1 (single isomer, unassigned; enantiomer 1)
